In patent US20160220523A1 (GEORGETOWN UNIVERSITY, priority 2013, published 2016):

Tests used:
Format in all cases: cell-based, murine
PGC-1α = PGC-1α expression in LPS-treated BV2 cells (RT-PCR); details: GW6471 0.25-2 μM 0.5 hrs, 20 μM fenofibrate 18 hrs, 100 ng/mL LPS 4 hrs
Description: (§1) PGC-1α expression was determined by RT-PCR.
(§2) Then the cells were treated with 100 ng/mL LPS for 4 hrs. […] (**p<0.01 vs. control; ##p<0.001 vs. LPS).
(§3) MN9D cells were cultured in Dulbecco's Modified Eagle Medium (DMEM) supplemented with 10% fetal bovine serum, and 3.7 g/L sodium bicarbonate at 37° C., 5% carbon dioxide. BV-2 cells (murine microglia) were maintained in DMEM supplemented with 10% fetal bovine serum and antibiotics (penicillin, 100 U/mL, streptomycin […]). Antibiotics were omitted for the fenofibrate evaluation study.

IL-1β = experiment: LPS-induced IL-1β expression in BV2 cells (RT-PCR)
Description: as §1, §2
(§4) Cell lysate was collected for Western blotting analysis.
as §3
(§5) AMPK is an energy sensor and can phosphorylate PGC-1α. It is plausible that AMPK phosphorylates PGC-1α and that PGC-1α then acts through positive feedback, binding to myocyte enhancer factor (MEF)-binding site to increase its own gene expression.

AMPK = AMPK phosphorylation in BV2 cells (Western blot); details: compound C 0.5 hour, then fenofibrate 1 hour
Description: as §4
BV-2 cells (murine microglia) were maintained in Dulbecco's Modified Eagle Medium supplemented with 10% fetal bovine serum and antibiotics (penicillin, 100 U/mL, streptomycin 100 μg/mL). Antibiotics were omitted for the fenofibrate evaluation study.
as §5

Row | SMILES | effect on fenofibrate mediated PGC-1α upregulation (PGC-1α) | effect on fenofibrate mediated anti-inflammatory effects (IL-1β mRNA) (IL-1β; GW6471 0.25-2 μM 0.5 hrs, 20 μM fenofibrate 18 hrs, 100 ng/mL LPS 4 hrs) | effect on fenofibrate mediated anti-inflammation (IL-1β gene expression) (IL-1β; Compound C 0.5 hour, then fenofibrate overnight, LPS) | AMPK phosphorylation under fenofibrate (AMPK)
1 | CCC(=O)NC[C@H](Cc1ccc(OCCc2nc(-c3ccccc3)oc2C)cc1)N/C(C)=C\C(=O)c1ccc(C(F)(F)F)cc1 [GW6471] | fails to suppress | fails to suppress |  | 
2 | c1cc(-c2cnn3cc(-c4ccc(OCCN5CCCCC5)cc4)cnc23)ccn1 [compound C] |  |  | weakened the anti-inflammatory effects of fenofibrate | concentration-dependent inhibitory effect
